This is an account of results in patent US12565473B2, “Coating composition” (priority 2020, dated 2026).

Data set [1] has as its system mouse embryonic stem (mES) reporter cell lines. The following applies: Bscl2 and Rtkn, absence and presence of S9.
For the next data set, the system named is Bscl2. The data set is described as follows: ToxTracker genotoxicity assay, Bscl2-GFP reporter induction.
The next data set relates to Rtkn. Kind of data set: ToxTracker genotoxicity assay, Rtkn-GFP reporter induction.
Setting [2] is: with S9 rat liver extract, 3 h exposure and 24 h recovery, at 10% cytotoxicity.
Setting [3] is: with S9 rat liver extract, 3 h exposure and 24 h recovery, at 25% cytotoxicity.
Where [4] appears, read: with S9 rat liver extract, 3 h exposure and 24 h recovery, at 50% cytotoxicity.
Setting [5] is: without S9 rat liver extract, 24 h exposure, at 10% cytotoxicity.
The mark [6] stands for this setting: without S9 rat liver extract, 24 h exposure, at 25% cytotoxicity.
Where [7] appears, read: without S9 rat liver extract, 24 h exposure, at 50% cytotoxicity.

The structures appear in SMILES notation.

Take `CCCCOCC(CN1CC1C)OC(=O)NCCCCCCn1c(=O)n(CCCCCCNC(=O)OC(COCCCC)CN2CC2C)c(=O)n(CCCCCCNC(=O)OC(COCCCC)CN2CC2C)c1=O` (centres unmarked) [Composition 21]: the “Genotoxicity test result (overall conclusion)” value in data set [1] is on record as “non-genotoxic”. For the same compound, the “Bscl 2 GFP reporter induction level” value in the data set on Bscl2 (setting [2]) turned out to be 1.0; with Bscl2 (setting [3]) it was 0.9; with Bscl2 (setting [4]) it was 0.7; in the data set with Bscl2 (setting [5]), 1.1; with Bscl2 (setting [6]) it was 1.1; with Bscl2 (setting [7]) it was 0.9. Besides, the “Rtkn GFP reporter induction level” value in the data set with Rtkn (setting [2]) is on record as 1.1; in the data set on Rtkn (setting [3]), 1.0; in the data set with Rtkn (setting [4]), 0.9; in the data set on Rtkn (setting [5]), 1.1; in the data set on Rtkn (setting [6]), 1.0; in the data set with Rtkn (setting [7]), 0.9.
With `CCCCOCC(CN1CC1C)OC(=O)NCCCCCCn1c(=O)n(CCCCCCNC(=O)OC(COCCCC)CN2CC2C)c(=O)n(CCCCCCNC(=O)OC(COCCCC)CN2CC2C)c1=O` (centres unmarked) [Composition 1], the “Genotoxicity test result (overall conclusion)” value in data set [1] is listed as “non-genotoxic”. The “Bscl 2 GFP reporter induction level” value stood at 1.0 with Bscl2 (setting [2]); 1.0 in the data set on Bscl2 (setting [3]); 0.9 in the data set with Bscl2 (setting [4]); 1.1 in the data set on Bscl2 (setting [5]); 1.1 in the data set on Bscl2 (setting [6]); 1.1 in the data set on Bscl2 (setting [7]). Also, the “Rtkn GFP reporter induction level” value in the data set on Rtkn (setting [2]) amounted to 0.9; in the data set on Rtkn (setting [3]), 0.8; with Rtkn (setting [4]), 0.6; with Rtkn (setting [5]) it was 0.8; in the data set with Rtkn (setting [6]), 0.8; in the data set with Rtkn (setting [7]) it was 0.6.
